Data from patent US12336981B2, “Compounds and compositions for the inhibition of NAMPT” (Valo Health, Inc., priority 2010, dated 2025).
Read-outs that look alike come from different tables or passages of the source.

Columns and labels:
[1] = biological target: T1, NAMPT (Homo sapiens, UniProt P43490); assay: Biochemical inhibition assay: NAMPT enzymatic reaction, NMN quantified by mass spectrometry; conditions: read-out: Biochem IC50
T1 construct: His tag; host or cells: E. coli
In short: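 Inhibition of E. coli-expressed His-tagged human NAMPT, measured as NMN formation by mass spectrometry after a 30 min room-temperature reaction containing 1 μM NAM, 100 μM PRPP and 2.5 mM ATP.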

[2] = test system: A2780 cells; assay: In-vitro cell proliferation assay (SRB), A2780 cells; assay type: cell-based; conditions: Homo sapiens, A2780, 72 h, A2780 cells, 72 hours, read-out: A2780 IC50
In short: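 Read-out is SRB absorbance at 570 nm on TCA-fixed cells after 72 hours of compound treatment at 37° C. in 5% CO2. Background from a media-only plate is subtracted, and % inhibition is interpolated between two tested concentrations.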

T1 sequence (P43490 whole entry): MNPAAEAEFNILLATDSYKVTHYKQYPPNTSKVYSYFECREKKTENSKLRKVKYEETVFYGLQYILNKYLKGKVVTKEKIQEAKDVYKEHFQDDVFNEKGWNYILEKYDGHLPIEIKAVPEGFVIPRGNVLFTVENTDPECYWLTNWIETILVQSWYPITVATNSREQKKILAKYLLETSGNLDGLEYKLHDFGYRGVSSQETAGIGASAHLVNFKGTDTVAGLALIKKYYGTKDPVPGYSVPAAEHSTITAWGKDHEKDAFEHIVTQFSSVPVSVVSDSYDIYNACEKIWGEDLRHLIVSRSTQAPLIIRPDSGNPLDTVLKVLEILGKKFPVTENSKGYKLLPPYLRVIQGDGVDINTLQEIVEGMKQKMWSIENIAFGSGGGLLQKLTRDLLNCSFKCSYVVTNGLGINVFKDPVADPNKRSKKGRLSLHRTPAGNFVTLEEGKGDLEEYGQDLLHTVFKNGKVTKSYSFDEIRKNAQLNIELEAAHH

| Compound | IC50 ([1]; NAMPT enzymatic reaction) [nM] | IC50 ([2]; SRB) [nM] | IC50 ([2]; SRB assay) [nM] | IC50 ([1]; NAMPT enzymatic assay) [nM] |
| --- | --- | --- | --- | --- |
| O=C(NCc1ccc(S(=O)(=O)c2cc(Cl)ccc2O)cc1)c1ccc2nccn2c1 [N-({4-[(5-chloro-2-hydroxybenzene)sulfonyl]phenyl}methyl)imidazo[1,2-a]pyridine-6-carboxamide] | 14 | 168 |  |  |
| O=C(NCc1ccc(S(=O)(=O)c2ccccc2)cc1)c1cn2ccncc2n1 [N-{[4-(benzenesulfonyl)phenyl]methyl}imidazo[1,2-a]pyrazine-2-carboxamide] | 1490 |  | > 30000 |  |
| COc1cccc(S(=O)(=O)c2ccc(CNC(=O)c3ccc4nccn4c3)cc2)c1F [N-({4-[(2-fluoro-3-methoxybenzene)sulfonyl]phenyl}methyl)imidazo[1,2-a]pyridine-6-carboxamide] | 33 | 13.5 |  |  |
| CCOCc1ccccc1S(=O)(=O)c1ccc(CNC(=O)c2cnc3nccn3c2)cc1 |  | 39.6 |  | 3.7 |
| O=C(NCc1ccc(S(=O)(=O)c2cncc(N3CCCC3)c2)cc1)c1cc2ccncc2o1 [N-({4-[5-(pyrrolidin-1-yl)pyridine-3-sulfonyl]phenyl}methyl)furo[2,3-c]pyridine-2-carboxamide] |  | 4.9 |  | 22.8 |
| CCN(CC)C(=O)c1cc(Cl)cc(S(=O)(=O)c2ccc(CNC(=O)c3cc4ccncc4o3)cc2)c1 [N-[(4-{[3-chloro-5-(diethylcarbamoyl)benzene]sulfonyl}phenyl)methyl]furo[2,3-c]pyridine-2-carboxamide] |  | 1.7 |  | 8.4 |
| Cn1cc2cc(S(=O)(=O)c3ccc(CNC(=O)c4ccc5nccn5c4)cc3)ccc2n1 [N-{[4-(2-methyl-2H-indazole-5-sulfonyl)phenyl]methyl}imidazo[1,2-a]pyridine-6-carboxamide] |  | 5.8 |  | 13.3 |
| O=C(NCc1ccc(S(=O)(=O)c2cccc3c2OCO3)cc1)c1ccc2nccn2c1 [N-{[4-(2H-1,3-benzodioxole-4-sulfonyl)phenyl]methyl}imidazo[1,2-a]pyridine-6-carboxamide] |  | 13 |  | 7.1 |
| Cc1c(F)cccc1S(=O)(=O)c1ccc(CNC(=O)c2cc3ccncc3o2)cc1 | 13.2 | 30.7 |  |  |
| CCOc1ccc(S(=O)(=O)c2ccc(CNC(=O)c3cc4ccncc4o3)cc2)cc1 [N-({4-[(4-ethoxybenzene)sulfonyl]phenyl}methyl)furo[2,3-c]pyridine-2-carboxamide] | 2.5 | 7.1 |  |  |
| O=C(NCc1ccc(S(=O)(=O)c2csc(-c3cccc(F)c3)n2)cc1)c1cnc2[nH]ncc2c1 [N-({4-[2-(3-fluorophenyl)-1,3-thiazole-4-sulfonyl]phenyl}methyl)-1H-pyrazolo[3,4-b]pyridine-5-carboxamide] |  | 60.9 |  | 27.1 |
| O=C(NCc1ccc(S(=O)(=O)c2ccc(-n3cccn3)c(F)c2)cc1)c1cc2ccncc2o1 |  | 5 |  | 17.3 |
| Cc1ccc(S(=O)(=O)c2ccc(CNC(=O)c3cnc4nccn4c3)cc2)cc1Cl | 1.8 | 1.2 |  |  |
| CCCCOc1cccc(F)c1S(=O)(=O)c1ccc(CNC(=O)c2cc3cnccc3[nH]2)cc1 | 8.8 | 5.6 |  |  |
| O=C(NCc1ccc(S(=O)(=O)c2ccc(F)cc2)cc1)c1cc2ccncc2s1 [N-({4-[(4-fluorobenzene)sulfonyl]phenyl}methyl)thieno[2,3-c]pyridine-2-carboxamide] | 3 |  | 10 |  |
| O=C(NCc1ccc(S(=O)(=O)c2cccnc2C(F)(F)F)cc1)c1cc2ccncc2o1 [N-({4-[2-(trifluoromethyl)pyridine-3-sulfonyl]phenyl}methyl)furo[2,3-c]pyridine-2-carboxamide] |  | 27.9 |  | 30.4 |
| COc1ccc(S(=O)(=O)c2ccc(CNC(=O)c3cnc4nccn4c3)cc2)cc1Cl | 1.8 | 1.8 |  |  |
| O=C(NCc1ccc(S(=O)(=O)c2cnc(N3CCCC3)s2)cc1)c1cc2cnccc2[nH]1 [N-({4-[2-(pyrrolidin-1-yl)-1,3-thiazole-5-sulfonyl]phenyl}methyl)-1H-pyrrolo[3,2-c]pyridine-2-carboxamide] |  | 0.5 |  | 6 |
